Test results taken from patent publication US5935977A, “Substituted vinyl pyridine derivative and drugs containing the same” (SS Pharmaceutical Co., Ltd., priority 1996, dated 1999).

Experiments:
PDE III = assay: PDE Inhibitory Activity Test, PDE III; format: biochemical; settings: human platelet PDE III; substrate 1 μM; 20 min at 30° C.
PDE IV [1] = assay: PDE Inhibitory Activity Test, PDE IV; format: biochemical; settings: PDE IV from human histocytic lymphoma (U-937); substrate 1 μM; 20 min at 30° C.
PDE V = target: T1, PDE V (Homo sapiens, UniProt O76074); assay: PDE Inhibitory Activity Test, PDE V; format: biochemical; settings: human platelet PDE V; substrate 1 μM; 20 min at 30° C.
T1 construct: isolated from human tissue and purified in accordance with the method described in literature; from tissue; host or cells: human platelets
Procedure: A variety of PDE isozymes shown below were isolated from human tissue and purified in accordance with the method described in literature.
H. Hidaka, et al., Bioph. Bioch. Acta, (1976), 429, p485
C. D. Nicholson, et al., Trends Pharmacol. Sci., (1991), 12, p19.
The PDE activity was determined through use of a modified two-step assay method described by Hidaka et al. (Bioph. Bioch. Acta., (1976), 429, p485),
Briefly, [^3 H]cAMP and [^3 H]cGMP are hydrolyzed by their respective PDE isozymes to form [^3 H]5'-AMP and [^3 H]5'-GMP, respectively. Subsequently, [^3 H]5^1 -AMP and [^3 H]5^1 -GMP are transformed into [^3 H]adenosine and [^3 H]guanosine, respectively, due to the action of nucleotidases. Unreacted [^3 H]cAMP and [^3 H]cGMP are removed, causing them to bond to ion exchange resin, and the quantity of eluted [^3 H]adenosine or [^3 H]guanosine was counted in a liquid scintillation counter.
The diluted enzyme solution contains 50 mM Tris-HCl (pH 8.0), 5 mM MgCl2, and 50 μg of bovine serum albumin, wherein the concentrations represent final concentrations. The substrate concentration is 1 μM. The concentration of each test compound varies between 0.1 nM and 100 μM. Each test sample is incubated for 20 minutes at 30° C., and the PDE reaction is terminated by boiling for 2 minutes. The nucleotidase reaction was induced by adding snake venom nucleotidase to the above-described reaction mixture and incubating the resultant mixture for 20 minutes at 30° C.

TNF-α = TNF-α Production Inhibition Test in LPS-treated U 937 cells; format: cell-based; settings: U 937 cells differentiated with PMA; LPS 10 ng/ml, 6 hours; human TNF-α ELISA
Procedure: Human promonocytic leukemia cells (U 937 cells, 1×10^5 cells/400 μl) were inoculated on a 24-well culture plate. By use of an RPMI 1640 culture liquid (supplemented with 10% FCS) containing 50 nM PMA, the cells were incubated for 72 hours, to thereby induce differentiation into monocyte/macrophage (see Sarkiz Daniel-Issakani, Allem M. Spiegel and Berta Strulovici (1989), J. Biol. Chem. 264, p20240-20247). Subsequently, the culture supernatant was discarded, and an RPMI 1640 culture liquid (supplemented with 10% FCS) containing 10 ng/ml of LPS (lipopolysaccharide; E. coli, 0111:B4) was added. Each compound was added one hour before the LPS treatment, so as to achieve concentrations of 100 μM, 10 μM, 1 μM, and 0.1 μM. Six hours after addition of LPS, the quantity of produced TNF-α in the supernatant was measured by use of a human TNF-α ELISA kit (Amersham, code RPN 2758), For respective doses of each compound, % control was calculated, wherein the quantity of TNF-α produced when LPS treatment was performed and the compound was not added was considered 100%. Further, based on primary regression curves, there were calculated IC50 values in terms of TNF-α production inhibitory activity for respective compounds.

PDE = settings: cited from earlier work
[2] = in vivo; cited from earlier work
PDE IV [3] = settings: PDE IV vs other PDE isozymes; cited from earlier work

Row | Compound | IC50 (PDE III) | IC50 (PDE IV [1]) | IC50 (PDE V) | IC50 (TNF-α) | PDE inhibition selectivity (PDE) | safety range [2] | potency at PDE IV relative to other PDE isozymes (PDE IV [3])
1 | COc1cnc(/C(C#N)=C/c2c(Cl)cncc2Cl)cc1OC1CCCC1 [Example 1, (Z)-2-(4-cyclopentyloxy-5-methoxy-2-pyridyl)-3-(3,5-dichloro-4-pyridyl)propenenitrile] | 10 µM | 0.0026 µM | > 100 µM | 10.2 µM | – | – | –
2 | COc1cnc(/C(C#N)=C/c2ccnc3ccccc23)cc1OC1CCCC1 [Example 10, (Z)-2-(4-Cyclopentyloxy-5-methoxy-2-pyridyl)-3-(4-quinolyl)propenenitrile] | – | – | – | 10 µM | – | – | –
3 | COc1cnc(/C(C#N)=C/c2c(Cl)cncc2Cl)cc1OCCc1ccccc1 [Example 14, (Z)-3-(3,5-Dichloro-4-pyridyl)-2-(5-methoxy-4-phenethyloxy-2-pyridyl)propenenitrile] | > 100 µM | 0.0059 µM | 5.6 µM | – | – | – | –
4 | COc1cnc(/C(C#N)=C/c2c(Cl)cncc2Cl)cc1OC1CCOC1 (centres unmarked) [Example 20, (Z)-3-(3,5-Dichloro-4-pyridyl)-2-[5-methoxy-4-(tetrahydro-3-furanyloxy)-2-pyridyl]propenenitrile] | 56 µM | 0.011 µM | > 100 µM | 7.1 µM | – | – | –
5 | COc1cnc(/C(C#N)=C/c2c(OC)cncc2OC)cc1OC1CCCC1 [Example 11, (Z)-2-(4-Cyclopentyloxy-5-methoxy-2-pyridyl)-3-(3,5-dimethoxy-4-pyridyl)propenenitrile] | – | – | – | 5.5 µM | – | – | –
6 | CCCCOc1cc(/C(C#N)=C/c2c(Cl)cncc2Cl)ncc1OC [Example 16, (Z)-2-(4-Butyloxy-5-methoxy-2-pyridyl)-3-(3,5-dichloro-4-pyridyl)propenenitrile] | 15 µM | 0.015 µM | 31 µM | 13.1 µM | – | – | –
7 | Cn1c(=O)c2[nH]cnc2n(C)c1=O [theophylline] | – | – | – | – | inhibits PDE non-selectively | rather narrow | –
8 | CCCCOc1cc(CC2CNC(=O)N2)ccc1OC (racemic) [Ro20-1724] | – | – | – | – | – | – | 100 times
9 | COc1ccc(C2CNC(=O)C2)cc1OC1CCCC1 (centres unmarked) [Rolipram, reference compound] | > 100 µM | 5 µM | – | 100 µM | – | – | –
10 | CCOc1cnc(/C(C#N)=C/c2c(Cl)cncc2Cl)cc1OC1CCCC1 [Example 18, (Z)-2-(4-Cyclopentyloxy-5-ethoxy-2-pyridyl)-3-(3,5-dichloro-4-pyridyl)propenenitrile] | 18 µM | 0.036 µM | 12 µM | – | – | – | –
11 | COc1cnc(/C(C#N)=C/c2c(Cl)cncc2Cl)cc1O[C@@H]1C[C@H]2CC[C@@H]1C2 (relative stereo) [Example 21, (Z)-3-(3,5-Dichloro-4-pyridyl)-2-[5-methoxy-4-(exo-2-norbornyloxy)-2-pyridyl]propenenitrile] | – | – | – | 13.3 µM | – | – | –
12 | COc1cnc(/C(C#N)=C/c2c(Cl)cncc2Cl)cc1OC1Cc2ccccc2C1 [Example 19, (Z)-3-(3,5-Dichloro-4-pyridyl)-2-[4-(2-indanyloxy)-5-methoxy-2-pyridyl]propenenitrile] | > 100 µM | 0.00065 µM | > 100 µM | 2.9 µM | – | – | –
13 | CCC(CC)Oc1cc(/C(C#N)=C/c2c(Cl)cncc2Cl)ncc1OC [Example 17, (Z)-3-(3,5-Dichloro-4-pyridyl)-2-[4-(1-ethylpropyloxy)-5-methoxy-2-pyridyl]propenenitrile] | > 100 µM | 0.036 µM | > 100 µM | – | – | – | –
14 | COc1cnc(/C(C#N)=C/c2c(Cl)cncc2Cl)cc1OCCCc1ccccc1 [Example 15, (Z)-3-(3,5-Dichloro-4-pyridyl)-2-[5-methoxy-4-(3-phenylpropyloxy)-2-pyridyl]propenenitrile] | 91 µM | 0.0048 µM | 56 µM | – | – | – | –
15 | COc1cnc(/C(C#N)=C/c2ccncc2)cc1OC1CCCC1 [Example 4, (Z)-2-(4-Cyclopentyloxy-5-methoxy-2-pyridyl)-3-(4-pyridyl)propenenitrile] | – | – | – | 7.6 µM | – | – | –
